Assay results reported in paper PMC7031696 (Cell chemical biology, 2019).

Tested on: 3D7-MR4 trophozoite parasite-infected RBCs
Test: Metabolomic profiling (hydrophilic metabolite changes, UHPLC-MS)
Type: cell-based, Plasmodium falciparum

CC(C)(C)NCc1cc(Nc2ccnc3cc(Cl)ccc23)c2c(c1O)CCCC2 [Naphtoquine, Naphthoquine, reference compound]
Log2(fold changes) adenosine (metabolite adenosine, log2 fold change): 0.0000 | Log2(fold changes) alanine/sarcosine (metabolite alanine/sarcosine, log2 fold change): -0.0537 | Log2(fold changes) anthranilate (metabolite anthranilate, log2 fold change): 0.0000 | Log2(fold changes) arginine (metabolite arginine, log2 fold change): 0.0159 | Log2(fold changes) asparagine (metabolite asparagine, log2 fold change): 0.0139 | Log2(fold changes) aspartate (metabolite aspartate, log2 fold change): -0.0605 | Log2(fold changes) biotin (metabolite biotin, log2 fold change): 0.0000 | Log2(fold changes) cCMP (metabolite cCMP, log2 fold change): 0.0520 | Log2(fold changes) cGMP (metabolite cGMP, log2 fold change): 0.0000 | Log2(fold changes) carnitine (metabolite carnitine, log2 fold change): 0.0000 | Log2(fold changes) citrate/isocitrate (metabolite citrate/isocitrate, log2 fold change): -0.0500 | Log2(fold change) of coenzyme A (metabolite coenzyme A): -0.1736 | Log2(fold change) of cyclic-AMP (metabolite cyclic-AMP): -3.95e-5 | Log2(fold change) of cytidine (metabolite cytidine): 0.0481 | Log2(fold change) of dAMP (metabolite dAMP): -0.6907 | Log2(fold change) of dATP (metabolite dATP): 0.1926 | Log2(fold change) of dCDP (metabolite dCDP): -0.7164 | Log2(fold change) of dCMP (metabolite dCMP): -0.1991 | Log2(fold change) of dCTP (metabolite dCTP): -0.0054 | Log2(fold change) of dGDP/ADP (metabolite dGDP/ADP): -0.3882 | Log2(fold change) of dGMP/AMP (metabolite dGMP/AMP): -0.6721 | Log2(fold change) of dGTP/ATP (metabolite dGTP/ATP): 0.1282 | Log2(fold change) of dTDP (metabolite dTDP): -0.6082 | Log2(fold change) of dTMP (metabolite dTMP): -0.8354 | Log2(fold change) of dTTP (metabolite dTTP): 0.1193 | Log2(fold change) of dUMP (metabolite dUMP): 0.0000 | Log2(fold change) of dUTP (metabolite dUTP): 0.0000 | Log2(fold change) of deoxyguanosine (metabolite deoxyguanosine): 0.0000 | Log2(fold change) of deoxyinosine (metabolite deoxyinosine): 0.0000 | Log2(fold change) of deoxyribose-phosphate (metabolite deoxyribose-phosphate): 0.0000 | Log2(fold change) of deoxyuridine (metabolite deoxyuridine): 0.0000 | Log2(fold change) of dihydroorotate (metabolite dihydroorotate): -0.0270 | Log2(fold change) of folate (metabolite folate): -0.0482 | Log2(fold change) of fructose-1-6-bisphosphate (metabolite fructose-1-6-bisphosphate): 0.2760 | Log2(fold change) of fructose-6-phosphate (metabolite fructose-6-phosphate): 0.2447 | Log2(fold change) of fumarate (metabolite fumarate): 0.1140 | Log2(fold change) of glucono-lactone (metabolite glucono-lactone): 0.0480 | Log2(fold change) of glucose-1/6-phosphate (metabolite glucose-1/6-phosphate): 0.0000 | Log2(fold change) of glutamate (metabolite glutamate): 0.0377 | Log2(fold change) of glutamine (metabolite glutamine): 0.0892 | Log2(fold change) of glutathione (metabolite glutathione): -0.0422 | Log2(fold change) glutathione disulfide (metabolite glutathione disulfide): -0.0039 | Log2(fold change) glycerate (metabolite glycerate): 0.0000 | Log2(fold change) guanine (metabolite guanine): -1.1501 | Log2(fold change) guanosine (metabolite guanosine): 0.0000 | Log2(fold change) histidine (metabolite histidine): 0.1439 | Log2(fold change) homocysteic acid (metabolite homocysteic acid): 0.0000 | Log2(fold change) hydroxyphenylpyruvate (metabolite hydroxyphenylpyruvate): 0.0000 | Log2(fold change) hydroxyproline/Aminolevulinate (metabolite hydroxyproline/Aminolevulinate): 0.1631 | Log2(fold change) hypoxanthine (metabolite hypoxanthine): 0.0000 | Log2(fold change) indole (metabolite indole): 0.0000 | Log2(fold change) inosine (metabolite inosine): -0.4099 | Log2(fold change) isoleucine (metabolite isoleucine): 0.1976 | Log2(fold change) lactate (metabolite lactate): -0.2436 | Log2(fold change) leucine (metabolite leucine): 0.1923 | Log2(fold change) lysine (metabolite lysine): 0.0742 | Log2(fold change) malate (metabolite malate): 0.0333 | Log2(fold change) maleic acid (metabolite maleic acid): 0.0474 | Log2(fold change) methionine (metabolite methionine): 0.2831 | Log2(fold change) myo-inositol (metabolite myo-inositol): -0.3601 | Log2(fold change) nicotinamide mononucleotide (metabolite nicotinamide mononucleotide): 0.0144 | Log2(fold change) nicotinate (metabolite nicotinate): -0.5500 | Log2(fold change) ornithine (metabolite ornithine): 0.0000 | Log2(fold change) orotate (metabolite orotate): -0.1816 | Log2(fold change) orotidine-5'-phosphate (metabolite orotidine-5'-phosphate): -0.1754 | Log2(fold change) oxaloacetate (metabolite oxaloacetate): 0.0000 | Log2(fold change) p-aminobenzoate (metabolite p-aminobenzoate): 0.0000 | Log2(fold change) p-hydroxybenzoate (metabolite p-hydroxybenzoate): 0.0000 | Log2(fold change) pantothenate (metabolite pantothenate): 0.0000 | Log2(fold change) phenylalanine (metabolite phenylalanine): 0.1566 | Log2(fold change) phenylpyruvate (metabolite phenylpyruvate): 0.0000 | Log2(fold change) phosphoenolpyruvate (metabolite phosphoenolpyruvate): 0.1381 | Log2(fold change) prephenate (metabolite prephenate): 0.0000 | Log2(fold change) proline (metabolite proline): -0.0640 | Log2(fold change) pyridoxine (metabolite pyridoxine): -0.2953 | Log2(fold change) pyruvate (metabolite pyruvate): -0.0949 | Log2(fold change) riboflavin (metabolite riboflavin): 0.0784 | Log2(fold change) ribose (metabolite ribose): 0.2671 | Log2(fold change) ribose-phosphate (metabolite ribose-phosphate): 0.0683 | Log2(fold change) ribulose-5-phosphate (metabolite ribulose-5-phosphate): 0.2669 | Log2(fold change) serine (metabolite serine): 0.0398 | Log2(fold change) sn-glycerol-3-phosphate (metabolite sn-glycerol-3-phosphate): 0.2727 | Log2(fold change) succinate/Methylmalonic acid (metabolite succinate/Methylmalonic acid): 0.1812 | Log2(fold change) succinyl-CoA/methylmalonyl-CoA (metabolite succinyl-CoA/methylmalonyl-CoA): 0.0000 | Log2(fold change) taurine (metabolite taurine): 0.1018 | Log2(fold change) thiamine (metabolite thiamine): -0.0320 | Log2(fold change) threonine/homoserine (metabolite threonine/homoserine): -0.0093 | Log2(fold change) thymidine (metabolite thymidine): 0.0000 | Log2(fold changes) thymine (metabolite thymine, log2 fold change): 0.0000 | Log2(fold changes) trehalose-6-Phosphate (metabolite trehalose-6-Phosphate, log2 fold change): 0.0000 | Log2(fold changes) tryptophan (metabolite tryptophan, log2 fold change): 0.2627 | Log2(fold changes) tyrosine (metabolite tyrosine, log2 fold change): 0.1902 | Log2(fold changes) uridine (metabolite uridine, log2 fold change): 0.0000 | Log2(fold changes) valine (metabolite valine, log2 fold change): 0.0658 | Log2(fold changes) xanthine (metabolite xanthine, log2 fold change): -0.8439 | Log2(fold changes) xanthosine-5-phosphate (metabolite xanthosine-5-phosphate, log2 fold change): 0.0356 | Log2(fold changes) xanthosine (metabolite xanthosine, log2 fold change): 0.2527 | Log2(fold changes) xylose (metabolite xylose, log2 fold change): 0.0000
